Laboratory results published in US9126999B2, “Tetrahydropyrazolopyrimidine compounds” (EISAI R&D MANAGEMENT CO., LTD., priority 2012, dated 2015).
One block for each molecule: values may come before it.

Key:
Human TLR7/8 = test system: T1, Human TLR7/8; experiment: Human PBMC cell-based assay, RNA-Ig (SL4-Ig) stimulus, cytokine ELISA; settings: Human PBMC IL-6 Inhibition (SL4-Ig Ligand); read-out: Human PBMC IC50
T1 construct: IC50; other: Hu PBMC; ligand RNA-Ig; analyte IL-6; analyte TNFα; ligand R848; IC50 against the RNA-Ig TLR7/8 stimulus; cytokine responses to RNA-Ig complexes in vitro; potency against the RNA-Ig TLR7/8 stimulus versus HCQ
Experimental: Briefly, 25 ml blood was diluted with 15 ml PBS (without Ca^2+, Mg^2+) in a 50 ml conical tube, and 12 ml Histopaque was underlaid using a spinal needle. Tubes were centrifuged for 45 minutes at 1200 rpm (350×g), and PBMC were collected from the buffy coat. Cells were then washed twice in PBS, and red blood cells were lysed by suspension in 5 ml ammonium chloride solution (1× Red Blood Cell Lysis Buffer, eBioscience) for 5 minutes at room temperature.
Antagonist compounds solubilized and serial diluted in 100% DMSO were added in triplicate to cells to yield a final concentration of 0.1% DMSO (v/v). Hydroxychloroquine (Acros Organics) solubilized and serial diluted in PBS was added in triplicate to cells. […] The resulting “RNA-Ig” stimulus was incubated at room temperature for 15-30 minutes before adding to cells. PBMC were incubated with the various TLR agonists for 20 hours at 37° C., 5% CO2. Cell culture supernatants were collected, and levels of various human cytokines were assessed as indicated by standard ELISA procedure according to the manufacturer's recommended protocol (BD Biosciences, Inc., San Diego, Calif.).

Mouse TLR7 [1] = biological target: T2, Mouse TLR7 (Mus musculus, UniProt P58681); experiment: Mouse spleen cell-based assay, R848 stimulus, IL-6 ELISA; settings: Mouse Splenocyte IL-6 Inhibition (R848 Ligand); read-out: Mouse Splenocyte IC50
T2 construct: endogenous in cells; host or cells: female BALB/c mice, in vivo
T2 sequence (P58681 27-1050): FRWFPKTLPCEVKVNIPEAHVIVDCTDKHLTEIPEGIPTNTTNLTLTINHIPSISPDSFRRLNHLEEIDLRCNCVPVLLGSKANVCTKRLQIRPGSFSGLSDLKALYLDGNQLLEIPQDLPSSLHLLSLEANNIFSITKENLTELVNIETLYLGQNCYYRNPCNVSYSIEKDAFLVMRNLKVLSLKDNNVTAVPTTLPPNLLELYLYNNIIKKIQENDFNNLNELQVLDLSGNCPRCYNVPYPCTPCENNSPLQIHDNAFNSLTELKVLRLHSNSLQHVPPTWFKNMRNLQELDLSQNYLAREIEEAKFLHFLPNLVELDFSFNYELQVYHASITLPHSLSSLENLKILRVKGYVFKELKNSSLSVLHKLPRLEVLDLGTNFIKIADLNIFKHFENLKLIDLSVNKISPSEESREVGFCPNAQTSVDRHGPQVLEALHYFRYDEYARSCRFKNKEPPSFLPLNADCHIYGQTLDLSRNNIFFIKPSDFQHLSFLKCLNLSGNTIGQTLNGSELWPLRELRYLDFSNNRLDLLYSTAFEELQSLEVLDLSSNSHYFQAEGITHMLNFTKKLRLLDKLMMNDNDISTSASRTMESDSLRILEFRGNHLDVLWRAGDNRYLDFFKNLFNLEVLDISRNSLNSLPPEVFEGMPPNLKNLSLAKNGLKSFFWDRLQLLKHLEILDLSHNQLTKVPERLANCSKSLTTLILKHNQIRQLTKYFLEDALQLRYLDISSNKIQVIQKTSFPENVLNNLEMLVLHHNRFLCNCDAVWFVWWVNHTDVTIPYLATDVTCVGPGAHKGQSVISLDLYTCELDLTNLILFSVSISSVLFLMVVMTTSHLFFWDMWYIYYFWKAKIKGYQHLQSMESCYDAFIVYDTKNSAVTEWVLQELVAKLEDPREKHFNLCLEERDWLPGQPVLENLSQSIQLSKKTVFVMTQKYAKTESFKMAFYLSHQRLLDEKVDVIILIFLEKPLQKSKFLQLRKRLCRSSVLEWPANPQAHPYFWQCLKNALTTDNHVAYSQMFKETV
Experimental: Spleens were harvested from female BALB/c mice (Jackson Labs, Bar Harbor, Me.) euthanized by CO2. A single cell suspension was obtained by passing spleens through a 40 μm nylon cell strainer. Cells were washed twice with 50 ml PBS (Mediatech, Inc., Manassas, Va.) and red blood cells were lysed in 5 ml RBC Lysis buffer (eBioscience, Inc., San Diego, Calif.) for 5 minutes at room temperature. Cells were washed twice more in PBS and finally resuspended in supplemented RPMI-1640 at 2.5×10^6 cells/ml. Cells were plated at 100 μl/well (2.5×10^5 cells/well) in 96-well tissue culture treated plates (Falcon). Serial dilutions of compounds solubilized in 100% DMSO were added in triplicate to cells to yield a final concentration of 0.1% DMSO. Cells were incubated with compound for 30 minutes at 37° C., 5% CO2 before adding 100 μl/well of 740 nM R848 (Resiquimod; GLSynthesis, Worcester, Mass.) in complete media for a final concentration of 370 nM R848. Cells were incubated for 20 hours at 37° C., 5% CO2. Culture supernatants were collected, and levels of IL-6 were assessed by standard ELISA procedure according to the manufacturer's recommended protocol (BD Biosciences, Inc., San Diego, Calif.).

Mouse TLR7 [2] = biological target: T2, Mouse TLR7; experiment: Short-term in vivo (STIV) assay: plasma IL-6 after s.c. R848
Experimental: Figure Legend: Female BALB/c mice were dosed by oral gavage with Vehicle alone (0.5% aqueous methyl-cellulose) or compound ER-892887 formulated in Vehicle at 100 mg/kg or 300 mg/kg. At 13 or 24 hours following oral dosing, mice were injected subcutaneously with 15 ug R848 to stimulate TLR7. Blood plasma was collected by cardiac puncture, and the IL-6 level at 1.5 hours after TLR7 stimulation was then assessed by standard ELISA procedure. Percent suppression indicated is relative to IL-6 induction following Vehicle control dosing. Statistical significance was determined by Mann-Whitney test.
To assess compound potency in vivo against mouse TLR7, a short-term in vivo (STIV) assay was utilized. Briefly, mice were orally dosed with compounds and at various time points afterwards were injected subcutaneously with agonist R848 to stimulate TLR7. The plasma IL-6 level following R848 stimulation was then measured by ELISA to assess compound potency and duration-of-action. […] Therefore, the activity of compounds in the STIV assay can be confidently attributed to their modulation of the TLR7 pathway. A single oral dose of ER-892887 at 300 mg/kg suppresses the R848/TLR7/IL-6 pathway in vivo by 80-90% for at least 24 hours (see FIG. 1).
Six to eight week old female BALB/c mice (Jackson Labs, Bar Harbor, Me.) were dosed by oral gavage in 200 ul volume with antagonist compounds formulated in 0.5% aqueous methyl-cellulose (Sigma, St. Louis, Mo.). At various time points afterwards, mice were injected subcutaneously (s.c.) in 100 ul volume with 15 ug R848 (Resiquimod; GLSynthesis, Worcester, Mass.) to stimulate TLR7. Blood plasma was collected by cardiac puncture, and levels of IL-6 at 1.5 hours after TLR7 stimulation were then assessed by standard ELISA procedure according to the manufacturer's recommended protocol (R&D Systems).

[3] = time point 6 hr, dose 33 mg/kg oral
[4] = time point 6 hr, dose 100 mg/kg oral
[5] = time point 6 hr, dose 300 mg/kg oral
[6] = time point 13 hr, dose 33 mg/kg oral
[7] = time point 13 hr, dose 100 mg/kg oral
[8] = time point 13 hr, dose 300 mg/kg oral
[9] = time point 24 hr, dose 100 mg/kg oral
[10] = time point 24 hr, dose 300 mg/kg oral

Molecule: 5-(3,4-dimethoxyphenyl)-2-(6-methyl-1,2,3,6-tetrahydropyridin-4-yl)-7-(trifluoromethyl)-4,5,6,7-tetrahydropyrazolo[1,5-a]pyrimidine hydrochloride and 5-(3,4-dimethoxyphenyl)-2-(2-methyl-1,2,3,6-tetrahydropyridin-4-yl)-7-(trifluoromethyl)-4,5,6,7-tetrahydropyrazolo[1,5-a]pyrimidine hydrochloride [ER-896993]
IC50 (Human TLR7/8): 38 nM

Molecule: COc1ccc(C2CC(C(F)F)n3nc(-c4ccc(C(=O)N5CCNCC5)cc4)cc3N2)cc1OC (racemic) [ER-894466]
IC50 (Mouse TLR7 [1]): 420 nM | IC50 (Human TLR7/8): 43 nM

Molecule: COc1ccc(C2CC(C(F)(F)F)n3nc(C4CCNCC4)cc3N2)cc1OC (centres unmarked) [ER-887084]
IC50 (Human TLR7/8): 101 nM

Molecule: COc1ccc([C@@H]2C[C@H](C(F)F)n3nc(-c4ccc(C(=O)N5CCNCC5)cc4)cc3N2)cc1OC [ER-895302]
% Suppression vs. Vehicle (Mouse TLR7 [2]; [3]): 93% | % Suppression vs. Vehicle (Mouse TLR7 [2]; [4]): 99% | % Suppression vs. Vehicle (Mouse TLR7 [2]; [5]): 99% | % Suppression vs. Vehicle (Mouse TLR7 [2]; [6]): 14% | % Suppression vs. Vehicle (Mouse TLR7 [2]; [7]): 16% | % Suppression vs. Vehicle (Mouse TLR7 [2]; [8]): 91% | % Suppression vs. Vehicle (Mouse TLR7 [2]; time point 24 hr, dose 33 mg/kg oral): 30% | % Suppression vs. Vehicle (Mouse TLR7 [2]; [9]): 0% | % Suppression vs. Vehicle (Mouse TLR7 [2]; [10]): 37% | IC50 (Mouse TLR7 [1]): 120 nM | IC50 (Human TLR7/8): 25 nM

Molecule: COc1ccc(C2CC(C(F)(F)F)n3nc(-c4ccc(C(=O)NC5CCNC5)nc4)cc3N2)cc1OC (centres unmarked) [ER-895810]
IC50 (Human TLR7/8): 27 nM

Molecule: COc1ccc(C2CC(C(F)(F)F)n3nc(-c4ccc(C(=O)N5CCNCC5)nc4)cc3N2)cc1OC (centres unmarked) [ER-896133]
IC50 (Human TLR7/8): 64 nM

Molecule: COc1ccc(C2CC(C(F)(F)F)n3nc(-c4ccc(C(=O)NC5CCCNC5)nc4)cc3N2)cc1OC (centres unmarked) [ER-896135]
IC50 (Human TLR7/8): 18 nM

Molecule: COc1ccc(C2CC(C(F)(F)F)n3nc(C(=O)N4CCNCC4)cc3N2)cc1OC (centres unmarked) [ER-896452]
IC50 (Human TLR7/8): 49 nM

Continued by falling IC50 (Human TLR7/8), values first:

IC50 (Mouse TLR7 [1]): 3920 nM | IC50 (Human TLR7/8): 4460 nM
Molecule: Cc1nn(C)cc1[C@@H]1C[C@H](C(F)(F)F)n2nc(-c3ccc4nn(C)cc4c3)cc2N1 [ER-893990]

IC50 (Human TLR7/8): 357 nM
Molecule: COc1ccc([C@H]2C[C@@H](C(F)(F)F)n3nc(C4CCNCC4)cc3N2)cc1OC [ER-885682]

% Suppression vs. Vehicle (Mouse TLR7 [2]; time point 3 hr, dose 33 mg/kg oral): 90% | % Suppression vs. Vehicle (Mouse TLR7 [2]; time point 3 hr, dose 100 mg/kg oral): 98% | % Suppression vs. Vehicle (Mouse TLR7 [2]; time point 3 hr, dose 300 mg/kg oral): 99% | % Suppression vs. Vehicle (Mouse TLR7 [2]; [3]): 42% | % Suppression vs. Vehicle (Mouse TLR7 [2]; [4]): 81% | % Suppression vs. Vehicle (Mouse TLR7 [2]; [5]): 96% | % Suppression vs. Vehicle (Mouse TLR7 [2]; [6]): 0% | % Suppression vs. Vehicle (Mouse TLR7 [2]; [7]): 7% | % Suppression vs. Vehicle (Mouse TLR7 [2]; [8]): 50% | IC50 (Human TLR7/8): 173 nM
Molecule: COc1ccc([C@@H]2C[C@H](C(F)(F)F)n3nc(C4CCNCC4)cc3N2)cc1OC [ER-885681]

IC50 (Human TLR7/8): 122 nM
Molecule: COc1ccc(C2CC(C(F)(F)F)n3nc(-c4cccc(C(=O)N5CCNCC5)c4)cc3N2)cc1OC (centres unmarked) [ER-896388]

IC50 (Human TLR7/8): 111 nM
Molecule: COc1ccc(C2CC(C(F)(F)F)n3nc(-c4cccc(C(=O)NC5CCNC5)c4)cc3N2)cc1OC (centres unmarked) [ER-895811]

% Suppression vs. Vehicle (Mouse TLR7 [2]; [3]): 92% | % Suppression vs. Vehicle (Mouse TLR7 [2]; [6]): 0% | % Suppression vs. Vehicle (Mouse TLR7 [2]; [7]): 18% | % Suppression vs. Vehicle (Mouse TLR7 [2]; [8]): 90% | % Suppression vs. Vehicle (Mouse TLR7 [2]; [9]): 0% | % Suppression vs. Vehicle (Mouse TLR7 [2]; [10]): 60% | IC50 (Mouse TLR7 [1]): 270 nM | IC50 (Human TLR7/8): 23 nM
Molecule: COc1ccc([C@H]2C[C@@H](C(F)F)n3nc(-c4ccc(C(=O)N5CCNCC5)cc4)cc3N2)cc1OC [ER-895303]

IC50 (Human TLR7/8): 21 nM
Molecule: COc1ccc(C2CC(C(F)(F)F)n3nc(-c4ccc(C(=O)NC5CCNC5)nc4)cc3N2)cc1OC (centres unmarked) [ER-895809]

IC50 (Human TLR7/8): 12 nM
Molecule: COc1ccc(C2CC(C(F)(F)F)n3nc(-c4ccc(C(=O)NC5CCNCC5)nc4)cc3N2)cc1OC (centres unmarked) [ER-896134]
